Earlier results on two molecules are cited in patent US20230067378A1, “COMPOSITIONS AND METHODS FOR THE TREATMENT OF ESTROGEN-DEPENDENT DISORDERS” (ObsEva S.A., priority 2018, published 2023).

The conditions of the data set: in vivo; cited from earlier work.

With `COc1cccc(-c2c(C)n(Cc3c(F)cccc3C(F)(F)F)c(=O)n(C[C@H](NCCCC(=O)O)c3ccccc3)c2=O)c1F` [Elagolix, sodium 4-({(1R)-2-[5-(2-fluoro-3-methoxyphenyl)-3-{[2-fluoro-6-(trifluoromethyl)phenyl]methyl}-4-methyl-2,6-dioxo-3,6-dihydropyrimidin-1(2H)-yl]-1-phenylethyl}amino)butanoate], the half-life was 2 to 6 h.
On to `CONC(=O)Nc1ccc(-c2sc3c(c2CN(C)C)c(=O)n(-c2ccc(OC)nn2)c(=O)n3Cc2c(F)cccc2F)cc1` [relugolix, N-(4-(1-(2,6-difluorobenzyl)-5-((dimethylamino)methyl)-3-(6-methoxy-3-pyridazinyl)-2,4-dioxo-1,2,3,4-tetrahydrothieno[2,3-d]pyrimidin-6-yl)phenyl)-N′-methoxyurea], for which the half-life was 37 to 42 h.
